{
  "source": "patent US4927565A",
  "about": "“5-substituted amino-4-hydroxy-pentenoic acid derivatives and their use” (Banyu Pharmaceutical Co., Ltd., priority 1986, dated 1990)",
  "target": "T1, Human plasma renin (Homo sapiens, UniProt P00797)",
  "T1 construct": "from tissue; host or cells: human plasma",
  "T1 sequence (P00797 67-406)": "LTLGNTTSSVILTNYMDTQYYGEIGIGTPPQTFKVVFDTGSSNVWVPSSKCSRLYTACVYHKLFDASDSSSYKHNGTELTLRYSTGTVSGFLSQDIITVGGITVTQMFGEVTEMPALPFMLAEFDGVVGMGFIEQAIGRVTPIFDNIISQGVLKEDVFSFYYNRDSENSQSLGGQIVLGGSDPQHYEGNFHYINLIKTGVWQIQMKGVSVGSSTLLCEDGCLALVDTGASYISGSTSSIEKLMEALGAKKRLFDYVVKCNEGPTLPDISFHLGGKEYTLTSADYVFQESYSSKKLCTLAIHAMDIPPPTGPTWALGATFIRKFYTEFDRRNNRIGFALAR",
  "assay": "Human plasma renin inhibiting activities (angiotensin I measured by radio immunoassay)",
  "format": "biochemical",
  "conditions": "pH7.4, 37° C., one hour, read-out: 50% inhibition concentration IC50",
  "description": "To 156 μl of a 0.2M sodium phosphate buffer solution (pH7.4), 40 μl of a solution mixture of 43 mM 8-hydroxyquinoline and 100 mM disodium ethylenediamine tetraacetate, 4 μl of dimethyl sulfoxide or a dimethyl sulfoxide solution of an inhibitor and 200 μl of human plasma were added and reacted at 37° C. for one hour. Then, pepstatin was added thereto to terminate the reaction, and the amount of the resulting angiotension I was measured by radio immunoassay whereby the inhibiting activity was determined.",
  "note": "pIC50: −log10 of the molar value.",
  "data": [
    {"smiles": "CCCC[C@H](NC(=O)[C@H](Cc1cccc2ccccc12)NC(=O)OCc1ccccc1)C(=O)N[C@@H](CC(C)C)[C@@H](O)/C=C/C(=O)NCC(C)C", "note": "[Compound A, (4S,5S)-5-(L-N-benzyloxycarbonylnaphthylalanyl-L-norleucyl)amino-4-hydroxy-7-methyl-2(E)-octenoic acid isobutylamide]", "values": [
      {"measurement": "pIC50", "value": 5.85}
    ]},
    {"smiles": "CCCC[C@H](NC(=O)[C@H](Cc1cccc2ccccc12)NC(=O)OCc1ccccc1)C(=O)N[C@@H](CC(C)C)[C@@H](O)/C=C(\\CCC)C(=O)NCC(C)C", "note": "[Compound D, (4S,5S)-5-(L-N-benzyloxycarbonylnaphthylalanyl-L-norleucyl)amino-4-hydroxy-2-propyl-7-methyl-2(E)-octenoic acid isobutylamide]", "values": [
      {"measurement": "pIC50", "value": 6.92}
    ]},
    {"smiles": "CCCC[C@H](NC(=O)[C@H](Cc1cccc2ccccc12)NC(=O)OCc1ccccc1)C(=O)N[C@@H](CC(C)C)[C@@H](O)/C=C(/CC)C(=O)NCC(C)C", "note": "[Compound C, (4S,5S)-5-(L-N-benzyloxycarbonylnaphthylalanyl-L-norleucyl)amino-2-ethyl-4-hydroxy-7-methyl-2(Z)-octenoic acid isobutylamide]", "values": [
      {"measurement": "pIC50", "value": 7.17}
    ]},
    {"smiles": "CCCC[C@H](NC(=O)[C@H](Cc1cccc2ccccc12)NC(=O)OCc1ccccc1)C(=O)N[C@@H](CC(C)C)[C@@H](O)/C=C(/C(=O)NCC(C)C)C(C)C", "note": "[Compound F, (4S,5S)-5-(L-N-benzyloxycarbonylnaphthylalanyl-L-norleucyl)amino-4-hydroxy-2-isopropyl-7-methyl-2(E)-octenoic acid isobutylamide]", "values": [
      {"measurement": "pIC50", "value": 6.82}
    ]},
    {"smiles": "CCCC[C@H](NC(=O)[C@H](Cc1cccc2ccccc12)NC(=O)OCc1ccccc1)C(=O)N[C@@H](CC(C)C)[C@@H](O)/C=C(\\CCCO)C(=O)NCC(C)C", "note": "[Compound H, (4S,5S)-5-(L-N-benzyloxycarbonylnaphthylalanyl-L-norleucyl)-amino-4-hydroxy-2-(3-hydroxypropyl)-7-methyl-2(E)-octenoic acid isobutylamide]", "values": [
      {"measurement": "pIC50", "value": 6.80}
    ]},
    {"smiles": "CCCC[C@H](NC(=O)[C@H](Cc1cccc2ccccc12)NC(=O)OCc1ccccc1)C(=O)N[C@@H](CC(C)C)[C@@H](O)/C=C(\\C(=O)NCC(C)C)C(C)C", "note": "[Compound G, (4S,5S)-5-(L-N-benzyloxycarbonylnaphthylalanyl-L-norleucyl)amino-4-hydroxy-2-isopropyl-7-methyl-2(Z)-octenoic acid isobutylamide]", "values": [
      {"measurement": "pIC50", "value": 6.59}
    ]},
    {"smiles": "CCCC[C@H](NC(=O)[C@H](Cc1cccc2ccccc12)NC(=O)OCc1ccccc1)C(=O)N[C@@H](CC(C)C)[C@@H](O)/C=C(\\CC)C(=O)NCC(C)C", "note": "[Compound B, (4S,5S)-5-(L-N-benzyloxycarbonylnaphthylalanyl-L-norleucyl)amino-4-hydroxy-2-ethyl-7-methyl-2(E)-octenoic acid isobutylamide]", "values": [
      {"measurement": "pIC50", "value": 7.72}
    ]},
    {"smiles": "CCCC[C@H](NC(=O)[C@H](Cc1cccc2ccccc12)NC(=O)OCc1ccccc1)C(=O)N[C@@H](CC(C)C)[C@@H](O)/C=C(/CCC)C(=O)NCC(C)C", "note": "[Compound E, (4S,5S)-5-(L-N-benzyloxycarbonylnaphthylalanyl-L-norleucyl)amino-4-hydroxy-2-propyl-7-methyl-2(Z)-octenoic acid isobutylamide]", "values": [
      {"measurement": "pIC50", "value": 6.51}
    ]}
  ]
}
